“And” between values parts separate entries of the source, which are not always exact repeats. Equal entries are not always repeated. Where two headings read alike, the source gives them in different places.
Experiments:
[1] = tested on: asexual P. falciparum 3D7 wild-type parasites; assay: P. falciparum asexual growth inhibition assay (SYBR Safe DNA replication); format: cell-based, Plasmodium falciparum; settings: for P. falciparum asexual growth, percentage of control: replicate values, source data Fig. 2B; for IC90 / IC50: Plasmodium falciparum; for IC50: read-out: IC50, P. falciparum asexual growth inhibition
In short: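 Sorbitol-synchronised ring-stage cultures at 1% parasitaemia and 1% haematocrit were exposed to 2-fold compound dilutions at 37 °C under microaerophilic conditions for 24, 48 or 72 h. Growth was read by SYBR Safe fluorescence of freeze-thaw lysates, with 200 nM chloroquine or artesunate defining background.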

[2] = tested on: Toxoplasma gondii tachyzoites (RH strain); assay: Toxoplasma growth inhibition assay (tdTomato fluorescence, in HFF cells); format: cell-based; settings: Toxoplasma gondii, HFF, 72 h, read-out: IC50, T. gondii tachyzoite growth inhibition
[3] = tested on: human embryonic kidney cells (HEK293); assay: Human embryonic kidney cell viability assay (MTT); format: cell-based; settings: Homo sapiens, HEK293, 96 h, read-out: IC50, human embryonic kidney cell inhibition (viability)
In short: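 HEK293 cells, 5,000 per well, exposed to serially diluted compound for 96 hours; 10 µg/mL cycloheximide as background control. Viability by MTT (0.45 mg/mL, 2 h), SDS solubilisation, absorbance at 570 nm.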

P. berghei liver stages = assay: Plasmodium berghei liver stage growth inhibition assay (luminescence, in Huh7 cells); settings: for P. berghei liver stage growth, dose-response data points (Figure 3A): replicate data points
Procedure: Growth inhibition or cell viability were assessed by incubation with a serial dilution of test compounds, solvent controls (DMSO, ethanol, ethyl acetate), or culture media alone in 96-well plates, with detection of fluorescence, luminescence, or absorbance in microplate readers after 24–96 h unless otherwise specified.
Huh7 cells were seeded at a density of 10,000 cells per well of a 96-well plate, or 20,000 cells per collagen-coated coverslip. After 24 h, test compounds were added the wells were inoculated with P. berghei liver stage sporozoites dissected from infected A. stephensi salivary glands with 5000–10,000 sporozoites per well or 10,000–20,000 sporozoites per coverslip. Uninfected wells served as a control for background luminescence. Luminescence signal was measured 48 h post-invasion by addition of 1:1 ONE-Glo^TM substrate (Promega) with a luminescence microplate reader. Coverslips were fixed, stained, and imaged, with all parasites on each coverslip imaged and delineated as described (Petersen et al, [2017]) using Fiji ImageJ (Schindelin et al, [2012]). Data are presented as a percentage of the size or parasite number of the solvent control to normalize for differences between experiments.
Growth inhibition data were normalised by subtracting background fluorescence, luminescence, absorbance, or percentage of cells from a no-growth or no-viability control (high drug concentration, no-parasite control, or time = 0 measurement as specified), and expressed as a percentage of the growth or cell percentage in the negative control (culture media alone or solvent control) at the indicated timepoint (or to the highest measurement reached during the assay for Fig. EV3).
Plasmodium berghei ANKA Bergreen (22) or GFP-Luc (RMgm-29) (23), respectively
expressing green fluorescent protein (GFP) or a GFP-Luciferase fusion protein, were
maintained under routine conditions in SWR/J Mus musculus mice and Anopheles stephensi
Growth inhibition of P. berghei liver-stages was investigated after infection of human
hepatoma cells (Huh7) and subsequent growth for 48 hours at 37° C, 5% CO2 and 80%
humidity. The day prior to infection, 10,000 Huh7 cells were seeded in dark-sided 96-well
microplates (Greiner Bio One). On the day of infection, compounds or solvent controls
(DMSO) were serially diluted in culture media and 5,000 – 10,000 Bergreen or GFP-Luc
sporozoites were added per well following dissection from infected A. stephensi salivary
glands. Uninfected wells served as control for background luminescence. To promote invasion,
the plates were centrifuged at 1,550 g for 5 minutes. After 60 minutes, the media was
completely replaced with fresh, prewarmed media with the matching drug concentrations.
Media was partially replaced with new drug dilutions over the following two days. 48 hours
post-infection, luminescence signal was measured by addition of 1:1 ONE-GloTM substrate
(Promega) to the wells, followed by detection at 300 – 700 nm using a Synergy HTX plate

## COc1cc(NC(C)CCCN)c2ncccc2c1 (stereo not shown) [Primaquine, primaquine, reference compound]
[1]; 0.048828130 uM, 24 h
  P. falciparum asexual growth, percentage of control: 103.5% and 112.3% and 122.3% and 109.6% and 103.8% and 107.6%
[1]; 0.097656250 uM, 24 h
  P. falciparum asexual growth, percentage of control: 133.8% and 115.8% and 109.7% and 98.88% and 101.1% and 114.9%
[1]; 0.195312500 uM, 24 h
  P. falciparum asexual growth, percentage of control: 92.88% and 92.1% and 75.42% and 87.41% and 53.27% and 109.2% and 104.7% and 89.49%
[1]; 0.390625000 uM, 24 h
  P. falciparum asexual growth, percentage of control: 101% and 92.22% and 85.08% and 86.3% and 91.98% and 87.62% and 106.4% and 103.7% and 80.96%
[1]; 0.781250000 uM, 24 h
  P. falciparum asexual growth, percentage of control: 87.28% and 86.95% and 87.11% and 97.7% and 104.2% and 88.59% and 104.3% and 96.91% and 94.25%
[1]; 1.562500000 uM, 24 h
  P. falciparum asexual growth, percentage of control: 104.9% and 96.53% and 90.19% and 106.5% and 37.96% and 92.95% and 112.9% and 86.68% and 94.95%
[1]; 3.125000000 uM, 24 h
  P. falciparum asexual growth, percentage of control: 98.46% and 91.72% and 71.7% and 85.23% and 66.97% and 105.3% and 93.44% and 88.46% and 77.37%
[1]; 6.250000000 uM, 24 h
  P. falciparum asexual growth, percentage of control: 70.33% and 75.07% and 74.44% and 55.89% and 62.38% and 52.2% and 93.44% and 79.9% and 76.14%
[1]; 12.500000000 uM, 24 h
  P. falciparum asexual growth, percentage of control: 59.74% and 51.28% and 54.52% and 22.36% and 27.69% and 24.85% and 101.7% and 67.6% and 71.11%
[1]; 25.000000000 uM, 24 h
  P. falciparum asexual growth, percentage of control: 32.29% and 12.73% and 20.21% and 8.779% and -12.09% and 0.142% and 58.69% and 51.9% and 34.08%
[1]; 50.000000000 uM, 24 h
  P. falciparum asexual growth, percentage of control: 4.003% and -4.24% and -21.02% and -13.23% and -31.85% and -34.48% and 21.18% and 8.951% and 16.84%
[1]; 3D7, 24 h
  IC90: 41 µM
[1]; 3D7, 48 h
  IC50: 6.5 µM
[1]; 3D7, 72 h
  IC90: 11.4 µM
  IC50: 2.6 µM
[1]; 3D7, 24 h, starting at ring stages
  IC50: 11.5 µM
[2]
  IC50: 9.7 µM
[3]
  IC50: 10.6 µM
P. berghei liver stages; 0.015241580 uM
  P. berghei liver stage growth, dose-response data points (Figure 3A): 93.67 and 95.48 and 110.9 and 122 and 82.26 and 95.7 and 96.97 and 92.94 and 110.1
P. berghei liver stages; 0.045724740 uM
  P. berghei liver stage growth, dose-response data points (Figure 3A): 108.1 and 96.38 and 105.4 and 91.89 and 98.42 and 97.49 and 70.73 and 69.42 and 92.75
P. berghei liver stages; 0.137174210 uM
  P. berghei liver stage growth, dose-response data points (Figure 3A): 105.4 and 121.7 and 113.6 and 95.08 and 83.35 and 110.5 and 75.51 and 85.25 and 113.8
P. berghei liver stages; 0.212890630 uM
  Figure 3E dose-response value (replicates): 110.2 and 105.1 and 104.6 and 108.5 and 84.79 and 105.5 and 104.2 and 95.71 and 86.14 and 93.88 and 93.04
P. berghei liver stages; 0.411522630 uM
  P. berghei liver stage growth, dose-response data points (Figure 3A): 105.4 and 115.4 (2×) and 82.34 and 95.47 and 107.6 and 82.44 and 82.72 and 115.2
P. berghei liver stages; 0.425781250 uM
  Figure 3E dose-response value (replicates): 102.3 and 92.15 and 106 and 104.8 and 98.19 and 93.53 and 98.84 and 93.27 and 90.28
P. berghei liver stages; 0.851562500 uM
  Figure 3E dose-response value (replicates): 96.31 and 95.61 and 102.1 and 104.8 and 94.91 and 106 and 91.69 and 92.32 and 88 and 100 and 90.58 and 89.08
P. berghei liver stages; 1.234567900 uM
  P. berghei liver stage growth, dose-response data points (Figure 3A): 95.48 and 107.2 and 78.84 and 85.44 and 95.31 and 57.42 and 69.42 and 85.07
P. berghei liver stages; 1.703125000 uM
  Figure 3E dose-response value (replicates): 88.27 and 98.56 and 102.4 and 105.9 and 83.84 and 86.74 and 92.09 and 88.62
P. berghei liver stages; 3.406250000 uM
  Figure 3E dose-response value (replicates): 97.54 and 95.04 and 93.86 and 98.31 and 97.98 and 92.53 and 88.24 and 88.2 and 80.51 and 79.64 and 66.71 and 72.77
P. berghei liver stages; 3.703703700 uM
  P. berghei liver stage growth, dose-response data points (Figure 3A): 52.94 and 55.66 and 62.9 and 27.87 and 29.81 and 24.61 and 21.71 and 31.37 and 31.18
P. berghei liver stages; 6.812500000 uM
  Figure 3E dose-response value (replicates): 52.26 and 84.6 and 91.44 and 91.35 and 88.74 and 72.33 and 82.87 and 73.41 and 70.7 and 48.65 and 46.53 and 51.73
P. berghei liver stages; 11.111111100 uM
  P. berghei liver stage growth, dose-response data points (Figure 3A): 2.262 and -2.262 (2×) and 1.062 and 1.606 and 2.072 and 3.062 and 2.968 and 4.186
P. berghei liver stages; 13.625000000 uM
  Figure 3E dose-response value (replicates): 24.3 and 46.65 and 52.62 and 55.32 and 16.73 and 22.67 and 37.29 and 44.07 and 37.02 and 20.99 and 23.94 and 27.39
P. berghei liver stages; 27.250000000 uM
  Figure 3E dose-response value (replicates): 0.8156 and 1.015 and 0.9272 and 0.814 and 1.004 and 2.12 and 0.3528 and 0.5411 and 2.525 and 0.8793 and 0.07968 and 0.8298
P. berghei liver stages; 33.333333300 uM
  P. berghei liver stage growth, dose-response data points (Figure 3A): -1.357 (3×) and 0.4403 and 0.2849 and 0.3626 and 1.093 and 1.749 and 0.9997
P. berghei liver stages; 100.000000000 uM
  P. berghei liver stage growth, dose-response data points (Figure 3A): -3.167 and -0.4525 and 0.4525 and -0.0259 and 0.0518 (2×) and -0.03124 (2×) and 0.5311
P. berghei liver stages; 109.000000000 uM
  Figure 3E dose-response value (replicates): 3.02 and 0.4007 and 0.2308 and 0.4951 and 3.634 and 2.894 and 0.4747 and 1.134 and 1.25 and 3.638 and 3.687 and 3.498
P. berghei liver stages; Plasmodium berghei, Huh-7, 48 h, read-out: IC50, P. berghei liver stage growth inhibition
  IC50: 2.9 µM

Source: PMC11251039, “Harnessing cholesterol uptake of malaria parasites for therapeutic applications” (EMBO Molecular Medicine, 2024)
